13 compounds from patent US20220370440A1 (Lead Discovery Center GmbH, priority 2018, published 2022) can be followed below.

As a reminder, the IC50 is the midpoint of a concentration-inhibition curve.

SMILES strings stand for the structures. Like-named read-outs stand apart in the source and are kept apart here.

Assay [1] deals with EGFR Exon 20 INSNPH Ba/F3 (Homo sapiens, UniProt P00533, DUP771-773, cells depend on it). The experiment in a line: EGFR Exon 20 INSNPH Ba/F3 CellTiter-Glo. It is filed as cell-based. The conditions noted are these: 72 h, read-out: EGFR Exon 20 INSNPH Ba/F3 CTG IC50. Here is the method: (§1) 2. Measurement of Cellular Activity
(§2) The CellTiter-Glo Luminescent Cell Viability Assay (Promega) is a homogeneous method of determining the number of viable cells in culture. It is based on quantification of ATP, indicating the presence of metabolically active cells. Cells are seeded on day 1 at cell numbers that assure assay linearity and optimal signal intensity. After incubation for 24 h in humidified chambers at 37° C. and 5% CO2, compounds in DMSO are added at different concentrations. Cells are further incubated for 72 h at 37° C. and 5% CO2. Cells treated with the compound vehicle DMSO are used as positive controls and cells treated with 10 μM Staurosporine serve as negative controls. At day 5 the CellTiter Glo Reagent is prepared according to the instructions of the kit (Promega Inc.): Reagent is mixed 1:1 with cell culture medium. Thereon, mixture and assay plates are equilibrated at room temperature for 20 min. Equal volumes of the reagent-medium-mixture is added to the volume of culture medium present in each well. The plates are mixed at ˜200 rpm for 2 minutes on an orbital shaker. The microplates are then incubated at room temperature for 10 minutes for stabilization of the luminescent signal. Following incubation the luminescence is recorded on a Victor microplate reader (Perkin Elmer) using a 200 ms integration time. The data is then analyzed with Excel using the XLFIT Plugin (dose response Fit 205) for IC50-determination. As quality control the Z′-factor is calculated from 16 positive and negative control values. Only assay results showing a Z′-factor ≥0.5 are used for further analysis.
(§3) Inhibition is indicated as IC50 [nM] (“−”=not measured). Compounds having an activity designated as “A” provided an IC50≤100 nM; compounds having an activity designated as “B” provided an 100 nM<IC50≤500 nM; compounds having an activity designated as “C” provided an 500 nM<IC50≤1000 nM; compounds having an activity designated as “D” provided an 1000 nM<IC50≤10000 nM; and compounds having an activity designated as “E” provided an IC50>10000 nM.

The target of assay [2] is Her2 Exon 20 INSYVMA Ba/F3 (Homo sapiens, UniProt P04626, DUP772-775, cells depend on it). The assay can be described thus: Her2 Exon 20 INSYVMA Ba/F3 CellTiter-Glo. Format: cell-based. The conditions noted are these: 72 h, read-out: Her2 Exon 20 INSYVMA Ba/F3 CTG IC50. The procedure:
as §1, §2, §3

The target in another assay is T1, HER2 INS YVMA (Homo sapiens, UniProt P04626, INS775YVMA).
T1 construct: purchased DPF
T1 sequence (P04626 with tags, fused parts or gaps INS775YVMA): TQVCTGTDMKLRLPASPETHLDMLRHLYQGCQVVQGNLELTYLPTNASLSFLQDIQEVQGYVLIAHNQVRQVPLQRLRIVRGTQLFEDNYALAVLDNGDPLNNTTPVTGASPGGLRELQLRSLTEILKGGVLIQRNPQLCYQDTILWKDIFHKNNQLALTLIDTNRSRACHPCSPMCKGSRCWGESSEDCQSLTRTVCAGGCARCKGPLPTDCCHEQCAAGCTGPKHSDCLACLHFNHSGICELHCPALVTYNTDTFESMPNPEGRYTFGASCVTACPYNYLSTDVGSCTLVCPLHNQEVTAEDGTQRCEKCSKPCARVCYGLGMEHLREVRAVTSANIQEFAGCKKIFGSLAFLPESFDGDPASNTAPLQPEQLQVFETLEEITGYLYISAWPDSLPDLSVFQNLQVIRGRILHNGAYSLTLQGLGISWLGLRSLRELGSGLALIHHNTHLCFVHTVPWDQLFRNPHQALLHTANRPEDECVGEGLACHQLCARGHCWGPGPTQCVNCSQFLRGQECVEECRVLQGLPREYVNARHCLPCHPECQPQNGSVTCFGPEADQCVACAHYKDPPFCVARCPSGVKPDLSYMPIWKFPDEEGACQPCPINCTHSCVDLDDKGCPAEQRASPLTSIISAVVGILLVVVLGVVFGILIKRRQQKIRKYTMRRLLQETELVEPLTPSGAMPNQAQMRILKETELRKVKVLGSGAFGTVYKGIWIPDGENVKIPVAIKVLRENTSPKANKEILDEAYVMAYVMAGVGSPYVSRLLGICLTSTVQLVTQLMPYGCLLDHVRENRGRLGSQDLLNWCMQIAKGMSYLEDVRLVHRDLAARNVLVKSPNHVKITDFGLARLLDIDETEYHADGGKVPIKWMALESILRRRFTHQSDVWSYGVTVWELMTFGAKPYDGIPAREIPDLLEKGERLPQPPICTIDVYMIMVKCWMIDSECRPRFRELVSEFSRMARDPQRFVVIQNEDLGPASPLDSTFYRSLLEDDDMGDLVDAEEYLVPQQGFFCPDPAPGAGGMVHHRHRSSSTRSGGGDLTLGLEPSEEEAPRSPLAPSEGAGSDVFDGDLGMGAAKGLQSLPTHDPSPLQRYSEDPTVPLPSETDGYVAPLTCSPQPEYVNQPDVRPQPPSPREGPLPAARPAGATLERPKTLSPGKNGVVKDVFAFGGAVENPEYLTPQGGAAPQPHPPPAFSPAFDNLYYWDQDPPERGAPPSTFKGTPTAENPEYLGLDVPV
The assay can be described thus: Lance Kinase Activity Assay, HER2 INS YVMA (Her2 Exon 20 INSYVMA Lance). It is filed as biochemical. The procedure:
1. Measurement of HER2 INS YVMA Kinase Activity
This protocol describes how the Lance Kinase Activity Assay was performed to determine IC50 values of compounds of general formula (I) against HER2 INS YVMA. The principle behind this enzymatic assay is based upon the phosphorylation of the Ulight-peptide substrate. It is detected by using a specific EU-labeled anti-phospho peptide antibody. The binding of the Eu labeled anti-phospho peptide antibody to the phosphorylated ULight labeled peptide gives rise to a FRET-signal.
Binding of an inhibitor to the kinase prevents phosphorylation of the Ulight-substrate, resulting in a loss of FRET. In table 2 is summarized the relevant information for the LANCE assay.
The compounds of general formula (I) summarized in Table 3 were serial diluted from a 10 mM DMSO stock solution 1:3 over 8 steps in a total volume of 20 μl.
For every sample, 8 μl of kinase-substrate mix was transferred into a suitable assay plate (e.g. Corning #3673). Compound was added via pintool transfer (10 nl/well) using a Biomek FX robot (BeckmanCoulter). Reaction was started by addition of 2 μl ATP working solution and mixed using variomag teleshaker (Thermo Fischer Scientific). After 1 h incubation at room temperature the reaction was stopped with 10 μl detection mix containing the Eu-labeled phosphospecific antibody and 10 mM EDTA. After a second incubation period of 1 h at room temperature the FRET signal was measured at 340 nm excitation, 665 nm and 615 nm emission (for the ULight-substrate and Eu-AB, respectively) with an Envision spectrophotometer (Perkin Elmer, Waltham, Mass., USA) with 50 μs delay and 300 μs integration time. IC50 values were determined from the sigmoidal dose response curves with the software Quattro Workflow (Quattro GmbH, Munich, Germany).

In another assay the test system is H1975. The experiment in a line: H1975 CellTiter-Glo. It is filed as cell-based. The conditions noted are these: Homo sapiens, NCI-H1975; 72 h compound incubation; read-out: H1975 CTG IC50. Here is the method: as §1, §2
(§4) Inhibition is indicated as […] [nM] (“−”=not measured). Compounds having an activity designated as “A” provided an IC50≤100 nM; compounds having an activity designated as “B” provided an 100 nM<IC50≤500 nM; compounds having an activity designated as “C” provided an 500 nM<IC50≤1000 nM; compounds having an activity designated as “D” provided an 1000 nM<IC50≤100000 nM; and compounds having an activity designated as “E” provided an IC50>10000 nM.

In the next assay the target is EGFR T790ML858R (Homo sapiens, UniProt P00533, L858R/T790M). The experiment in a line: EGFR T790ML858R Lance assay. Format: biochemical. The procedure:
as §4

A further assay deals with EGFR wt (Homo sapiens, UniProt P00533). The assay can be described thus: EGFR wt Lance assay. Format: biochemical. The procedure: as §4
Chain of EGFR wt (P00533 25-1210): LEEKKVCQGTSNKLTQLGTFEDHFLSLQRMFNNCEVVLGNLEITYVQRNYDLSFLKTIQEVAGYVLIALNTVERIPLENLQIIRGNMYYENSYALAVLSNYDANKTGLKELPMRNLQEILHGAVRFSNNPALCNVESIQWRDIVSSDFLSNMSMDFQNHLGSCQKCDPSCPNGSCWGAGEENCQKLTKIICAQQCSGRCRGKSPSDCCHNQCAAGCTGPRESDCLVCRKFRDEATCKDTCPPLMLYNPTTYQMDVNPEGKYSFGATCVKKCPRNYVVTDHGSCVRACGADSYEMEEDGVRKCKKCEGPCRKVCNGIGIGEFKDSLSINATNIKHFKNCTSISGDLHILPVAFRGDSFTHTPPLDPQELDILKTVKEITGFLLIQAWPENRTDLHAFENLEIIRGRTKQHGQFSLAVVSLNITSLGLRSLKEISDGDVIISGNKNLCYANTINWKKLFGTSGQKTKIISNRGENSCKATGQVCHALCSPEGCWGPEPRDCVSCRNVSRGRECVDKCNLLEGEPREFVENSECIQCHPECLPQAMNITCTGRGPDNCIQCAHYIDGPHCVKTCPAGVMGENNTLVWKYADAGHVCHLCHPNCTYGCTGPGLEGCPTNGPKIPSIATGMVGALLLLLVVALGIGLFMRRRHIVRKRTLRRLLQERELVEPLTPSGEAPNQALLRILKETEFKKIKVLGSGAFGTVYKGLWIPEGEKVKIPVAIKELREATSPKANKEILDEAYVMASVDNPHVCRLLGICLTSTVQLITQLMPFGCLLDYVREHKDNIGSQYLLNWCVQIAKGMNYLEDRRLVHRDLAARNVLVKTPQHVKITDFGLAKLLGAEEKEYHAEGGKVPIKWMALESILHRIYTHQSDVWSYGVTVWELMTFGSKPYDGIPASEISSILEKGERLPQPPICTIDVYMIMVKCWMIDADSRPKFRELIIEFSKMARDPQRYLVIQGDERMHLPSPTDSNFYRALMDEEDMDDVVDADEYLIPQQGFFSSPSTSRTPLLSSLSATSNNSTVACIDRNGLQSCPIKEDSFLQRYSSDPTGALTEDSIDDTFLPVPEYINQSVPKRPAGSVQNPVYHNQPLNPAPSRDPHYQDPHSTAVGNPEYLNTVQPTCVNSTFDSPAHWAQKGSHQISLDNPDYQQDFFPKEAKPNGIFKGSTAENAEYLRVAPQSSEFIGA

Chain of Her2 Exon 20 INSYVMA Ba/F3 (P04626 with tags, fused parts or gaps DUP772-775): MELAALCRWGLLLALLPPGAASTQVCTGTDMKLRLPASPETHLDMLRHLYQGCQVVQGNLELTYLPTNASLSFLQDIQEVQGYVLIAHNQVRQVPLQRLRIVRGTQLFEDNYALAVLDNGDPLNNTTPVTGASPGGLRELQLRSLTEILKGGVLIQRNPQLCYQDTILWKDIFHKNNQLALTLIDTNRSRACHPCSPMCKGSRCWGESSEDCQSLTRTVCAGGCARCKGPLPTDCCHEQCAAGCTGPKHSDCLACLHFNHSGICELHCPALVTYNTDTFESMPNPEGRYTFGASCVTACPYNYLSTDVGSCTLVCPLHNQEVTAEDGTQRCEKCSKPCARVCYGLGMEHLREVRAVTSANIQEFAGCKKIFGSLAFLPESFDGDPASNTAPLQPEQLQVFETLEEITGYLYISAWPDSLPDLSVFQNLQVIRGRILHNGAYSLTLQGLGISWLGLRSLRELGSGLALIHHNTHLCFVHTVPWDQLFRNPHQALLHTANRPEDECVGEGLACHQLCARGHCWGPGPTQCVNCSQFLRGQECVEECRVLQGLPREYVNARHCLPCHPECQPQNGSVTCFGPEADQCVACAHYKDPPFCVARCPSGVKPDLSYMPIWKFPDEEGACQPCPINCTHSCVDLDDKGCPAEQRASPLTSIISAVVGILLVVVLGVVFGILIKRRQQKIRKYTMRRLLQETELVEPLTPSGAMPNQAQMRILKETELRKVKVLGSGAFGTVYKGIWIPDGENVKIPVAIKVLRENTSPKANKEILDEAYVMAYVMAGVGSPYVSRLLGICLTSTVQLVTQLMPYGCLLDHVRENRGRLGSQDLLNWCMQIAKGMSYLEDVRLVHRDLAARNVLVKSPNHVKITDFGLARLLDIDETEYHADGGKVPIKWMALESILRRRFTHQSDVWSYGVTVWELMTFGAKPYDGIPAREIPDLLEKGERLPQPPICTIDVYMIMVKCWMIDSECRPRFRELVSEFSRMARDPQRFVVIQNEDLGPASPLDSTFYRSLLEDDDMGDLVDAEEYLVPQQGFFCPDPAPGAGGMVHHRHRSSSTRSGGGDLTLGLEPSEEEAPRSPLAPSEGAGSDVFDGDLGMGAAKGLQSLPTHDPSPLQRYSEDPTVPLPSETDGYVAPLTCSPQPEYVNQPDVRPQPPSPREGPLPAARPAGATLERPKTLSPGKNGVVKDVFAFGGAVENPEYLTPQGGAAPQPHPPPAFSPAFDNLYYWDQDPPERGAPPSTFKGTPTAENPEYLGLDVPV
Chain of EGFR T790ML858R (P00533 25-1210 T790M/L858R): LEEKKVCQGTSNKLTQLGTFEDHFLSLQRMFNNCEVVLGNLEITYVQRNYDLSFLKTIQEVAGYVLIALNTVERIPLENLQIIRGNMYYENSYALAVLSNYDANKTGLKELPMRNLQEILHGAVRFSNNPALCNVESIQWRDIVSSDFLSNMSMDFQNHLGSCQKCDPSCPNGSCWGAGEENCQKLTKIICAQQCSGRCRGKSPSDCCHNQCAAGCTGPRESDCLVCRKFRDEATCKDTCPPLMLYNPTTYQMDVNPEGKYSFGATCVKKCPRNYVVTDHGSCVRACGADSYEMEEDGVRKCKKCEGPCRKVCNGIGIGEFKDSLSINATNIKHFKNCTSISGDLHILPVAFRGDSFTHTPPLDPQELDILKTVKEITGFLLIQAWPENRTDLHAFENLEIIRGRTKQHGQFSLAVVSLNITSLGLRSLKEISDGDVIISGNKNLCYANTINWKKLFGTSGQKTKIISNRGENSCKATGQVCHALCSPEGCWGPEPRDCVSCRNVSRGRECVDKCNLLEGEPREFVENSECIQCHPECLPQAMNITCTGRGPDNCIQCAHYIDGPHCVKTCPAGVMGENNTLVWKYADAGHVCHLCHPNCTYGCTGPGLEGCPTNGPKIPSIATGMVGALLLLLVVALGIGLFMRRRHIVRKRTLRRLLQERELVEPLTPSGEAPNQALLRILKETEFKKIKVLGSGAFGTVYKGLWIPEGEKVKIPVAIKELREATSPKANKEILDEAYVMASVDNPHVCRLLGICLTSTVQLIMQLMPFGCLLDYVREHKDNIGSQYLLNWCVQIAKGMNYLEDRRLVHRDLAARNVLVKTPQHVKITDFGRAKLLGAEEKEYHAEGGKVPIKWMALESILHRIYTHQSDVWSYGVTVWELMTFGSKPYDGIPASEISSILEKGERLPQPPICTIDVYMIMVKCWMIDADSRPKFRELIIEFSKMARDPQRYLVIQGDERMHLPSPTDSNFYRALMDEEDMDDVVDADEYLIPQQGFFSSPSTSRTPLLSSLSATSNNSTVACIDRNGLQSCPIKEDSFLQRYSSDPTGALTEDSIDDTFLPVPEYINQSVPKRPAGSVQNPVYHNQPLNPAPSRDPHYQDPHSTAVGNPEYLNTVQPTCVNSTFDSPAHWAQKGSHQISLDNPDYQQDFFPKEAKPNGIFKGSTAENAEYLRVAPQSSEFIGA

Turning to `C=CC(=O)Nc1cc(-c2c(-c3ccc(F)c(C(=O)N4CCOCC4)c3)[nH]c3nccc(Cl)c23)ccc1C` [Example 33, N-(5-(4-chloro-2-(4-fluoro-3-(morpholine-4-carbonyl)phenyl)-1H-pyrrolo[2,3-b]pyridin-3-yl)-2-methylphenyl)acrylamide], the GI50 in assay [1] (CellTiter-Glo) and in assay [2] (CellTiter-Glo) was 1000 to 10000 nM throughout. Also, the IC50 against HER2 INS YVMA (biochemical Lance assay) was in the range of 1000 to 10000 nM; in the assay on H1975 it was 100 to 500 nM; at EGFR T790ML858R, 100 to 500 nM; against EGFR wt it was 500 to 1000 nM.
For the compound `C=CC(=O)Nc1cc(-c2c(-c3ccc(Cl)c(C(=O)N4CCOCC4)c3)[nH]c3nccc(Cl)c23)ccc1C` [Example 34, N-(5-(4-chloro-2-(4-chloro-3-(morpholine-4-carbonyl)phenyl)-1H-pyrrolo[2,3-b]pyridin-3-yl)-2-methylphenyl)acrylamide], the GI50 in assay [1] (CellTiter-Glo) and in assay [2] (CellTiter-Glo) was 1000 to 10000 nM throughout. Also, the IC50 is 1000 to 10000 nM against HER2 INS YVMA (biochemical Lance assay), 500 to 1000 nM in the assay with H1975, 100 to 500 nM against EGFR T790ML858R and 1000 to 100000 nM at EGFR wt.
Consider `C=CC(=O)Nc1cc(-c2c(-c3cccc(N4CCN(C(C)=O)CC4)c3)[nH]c3nccc(Cl)c23)ccc1C` [Example 35, N-(5-(2-(3-(4-acetylpiperazin-1-yl)phenyl)-4-chloro-1H-pyrrolo[2,3-b]pyridin-3-yl)-2-methylphenyl)acrylamide], for which the GI50 in assay [1] (CellTiter-Glo) and in assay [2] (CellTiter-Glo) was 500 to 1000 nM in each case. For the same compound, the IC50 on HER2 INS YVMA (biochemical Lance assay) was 100 to 500 nM; in the assay on H1975, ≤ 100 nM; on EGFR T790ML858R, ≤ 100 nM; against EGFR wt it was ≤ 100 nM.
As to `C=CC(=O)Nc1cc(-c2c(-c3cccc(C(=O)N4CCN(C)CC4)c3)[nH]c3nccc(Cl)c23)ccc1C` [Example 44, N-(5-(4-chloro-2-(3-(4-methylpiperazine-1-carbonyl)phenyl)-1H-pyrrolo[2,3-b]pyridin-3-yl)-2-methylphenyl)acrylamide 2,2,2-trifluoroacetate], the GI50 in assay [1] (CellTiter-Glo) and in assay [2] (CellTiter-Glo) was 1000 to 10000 nM throughout. The IC50 at HER2 INS YVMA (biochemical Lance assay) is 100 to 500 nM; in the assay with H1975 it was 100 to 500 nM; on EGFR T790ML858R, ≤ 100 nM; against EGFR wt it was 100 to 500 nM.
As to `C=CC(=O)Nc1cc(-c2c(-c3cccc(C(=O)N4CCCCCC4)c3)[nH]c3nccc(Cl)c23)ccc1C` [Example 45, N-(5-(2-(3-(azepane-1-carbonyl)phenyl)-4-chloro-1H-pyrrolo[2,3-b]pyridin-3-yl)-2-methylphenyl)acrylamide], the GI50 in assay [1] (CellTiter-Glo) and in assay [2] (CellTiter-Glo) was 1000 to 10000 nM in each case. Also, the IC50 on HER2 INS YVMA (biochemical Lance assay) was > 10000 nM; with H1975 it was 1000 to 100000 nM; at EGFR T790ML858R, 100 to 500 nM; on EGFR wt, 1000 to 100000 nM.
Turning to `C=CC(=O)Nc1cc(-c2c(-c3cccc(C(=O)N4CCC5(CCNC5=O)CC4)c3)[nH]c3nccc(Cl)c23)ccc1C` [Example 46, N-(5-(4-chloro-2-(3-(1-oxo-2,8-diazaspiro[4.5]decane-8-carbonyl)phenyl)-1H-pyrrolo[2,3-b]pyridin-3-yl)-2-methylphenyl)acrylamide], the GI50 in assay [1] (CellTiter-Glo) and in assay [2] (CellTiter-Glo) was 1000 to 10000 nM in each case. Further, the IC50 at HER2 INS YVMA (biochemical Lance assay) is 1000 to 10000 nM; in the assay on H1975, 1000 to 100000 nM; against EGFR T790ML858R, ≤ 100 nM; against EGFR wt, 500 to 1000 nM.
Regarding `C=CC(=O)Nc1cc(-c2c(-c3cccc(C(=O)NC4CC4)c3)[nH]c3nccc(Cl)c23)ccc1C` [Example 49, 3-(3-(3-acrylamido-4-methylphenyl)-4-chloro-1H-pyrrolo[2,3-b]pyridin-2-yl)-N-cyclopropylbenzamide], the GI50 was 1000 to 10000 nM in assay [1] (CellTiter-Glo) and 500 to 1000 nM in assay [2] (CellTiter-Glo). Further, the half-maximal inhibitory concentration (IC50) is 500 to 1000 nM against HER2 INS YVMA (biochemical Lance assay), 100 to 500 nM in the assay on H1975, ≤ 100 nM on EGFR T790ML858R and 100 to 500 nM against EGFR wt.
For the compound `C=CC(=O)Nc1cc(-c2c(-c3cccc(C(=O)NC4CCCCC4)c3)[nH]c3nccc(Cl)c23)ccc1C` [Example 50, 3-(3-(3-acrylamido-4-methylphenyl)-4-chloro-1H-pyrrolo[2,3-b]pyridin-2-yl)-N-cyclohexylbenzamide], the GI50 in assay [1] (CellTiter-Glo) and in assay [2] (CellTiter-Glo) was 1000 to 10000 nM in each case. The half-inhibitory concentration (IC50) on HER2 INS YVMA (biochemical Lance assay) was > 10000 nM; in the assay on H1975, 500 to 1000 nM; at EGFR T790ML858R, 100 to 500 nM; on EGFR wt it was 1000 to 100000 nM.
`C=CC(=O)Nc1cc(-c2c(-c3cccc(C(=O)NCCCN(C)Cc4ccccc4)c3)[nH]c3nccc(Cl)c23)ccc1C` [Example 51, 3-(3-(3-acrylamido-4-methylphenyl)-4-chloro-1H-pyrrolo[2,3-b]pyridin-2-yl)-N-(3-(benzyl(methyl)amino)propyl)benzamide]: the GI50 in assay [1] (CellTiter-Glo) and in assay [2] (CellTiter-Glo) was 500 to 1000 nM in each case. The half-maximal inhibitory concentration (IC50) against HER2 INS YVMA (biochemical Lance assay) is 100 to 500 nM; with H1975, ≤ 100 nM; against EGFR T790ML858R it was ≤ 100 nM; against EGFR wt, ≤ 100 nM.
For the compound `C=CC(=O)Nc1cc(-c2c(-c3cccc(C(=O)N4CCN(C(C)=O)CC4)c3)[nH]c3nccc(Cl)c23)ccc1C` [Example 52, N-(5-(2-(3-(4-acetylpiperazine-1-carbonyl)phenyl)-4-chloro-1H-pyrrolo[2,3-b]pyridin-3-yl)-2-methylphenyl)acrylamide], the GI50 in assay [1] (CellTiter-Glo) and in assay [2] (CellTiter-Glo) was 1000 to 10000 nM each time. Moreover, the IC50 is 100 to 500 nM against HER2 INS YVMA (biochemical Lance assay), 100 to 500 nM in the assay on H1975, ≤ 100 nM at EGFR T790ML858R and 100 to 500 nM against EGFR wt.
`C=CC(=O)Nc1cc(-c2c(-c3cccc(C(=O)N4CCC5(CC4)CN(C)C5)c3)[nH]c3nccc(Cl)c23)ccc1C` [Example 53, N-(5-(4-chloro-2-(3-(2-methyl-2,7-diazaspiro[3.5]nonane-7-carbonyl)phenyl)-1H-pyrrolo[2,3-b]pyridin-3-yl)-2-methylphenyl)acrylamide]: the GI50 in assay [1] (CellTiter-Glo) and in assay [2] (CellTiter-Glo) was 1000 to 10000 nM each time. In addition, the concentration for half-maximal inhibition (IC50) is ≤ 100 nM on HER2 INS YVMA (biochemical Lance assay), 100 to 500 nM with H1975, ≤ 100 nM at EGFR T790ML858R and ≤ 100 nM on EGFR wt.
As to `C=CC(=O)Nc1cc(-c2c(-c3ccc(N4CCN(C)CC4)cc3)[nH]c3nccc(Cl)c23)ccc1C` [drawing 711], the GI50 in assay [1] worked out at 35 nM; in assay [2], 64 nM. In addition, the IC50 at HER2 INS YVMA was 5 nM.
Consider `CCC(=O)Nc1cc(-c2c(-c3ccc(N4CCN(C)CC4)cc3)[nH]c3nccc(Cl)c23)ccc1C` [reference compound], for which the figures for the GI50 in assay [1] and in assay [2] were 1310 nM and 754 nM, respectively. At HER2 INS YVMA, this compound gave an IC50 of 916 nM.
